Measurements from BindingDB's records for doi:10.1016/s1074-5521(98)90632-9 (Merck Research Laboratories, 1998).

Legend:
Dipeptidase 1 = target: T1, Dipeptidase 1 (Homo sapiens, UniProt P16444); experiment: Dehydropeptidase I Assay; settings: pH 7; 37 °C
T1 sequence (P16444 whole entry): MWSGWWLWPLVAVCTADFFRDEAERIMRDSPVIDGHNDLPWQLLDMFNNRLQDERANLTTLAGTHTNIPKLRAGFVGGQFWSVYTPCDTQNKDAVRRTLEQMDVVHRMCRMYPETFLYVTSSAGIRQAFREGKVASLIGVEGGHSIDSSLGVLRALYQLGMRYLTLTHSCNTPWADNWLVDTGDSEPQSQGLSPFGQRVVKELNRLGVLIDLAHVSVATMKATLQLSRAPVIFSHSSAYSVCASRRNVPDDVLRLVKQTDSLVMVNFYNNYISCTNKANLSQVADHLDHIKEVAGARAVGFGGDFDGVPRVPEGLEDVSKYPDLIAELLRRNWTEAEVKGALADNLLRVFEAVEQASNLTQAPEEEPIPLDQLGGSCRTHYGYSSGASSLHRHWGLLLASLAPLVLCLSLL
Excerpt: Enzyme inhibition assay by biphenyl tetrazoles (BPTS)using dehydropeptidase 1 (DPH-1).

Beta-lactamase = target: T2, Beta-lactamase (Bacteroides fragilis, UniProt Q8KZP2); experiment: Metallo-Beta-Lactamase Assay; settings: pH 7; 37 °C
T2 sequence (Q8KZP2 whole entry): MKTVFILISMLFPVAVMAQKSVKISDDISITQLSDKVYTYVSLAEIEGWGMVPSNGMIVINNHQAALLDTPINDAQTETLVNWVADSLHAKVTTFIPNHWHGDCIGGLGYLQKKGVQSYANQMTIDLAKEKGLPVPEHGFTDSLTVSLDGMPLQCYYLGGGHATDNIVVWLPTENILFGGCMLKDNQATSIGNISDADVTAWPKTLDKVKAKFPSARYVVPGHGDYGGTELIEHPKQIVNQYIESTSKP
Excerpt: Enzyme inhibition assay by biphenyl tetrazoles (BPTS)using metallo-beta-lactamase.

Row | Structure (SMILES) | IC50 (Dipeptidase 1) [µM] | IC50 (Beta-lactamase) [µM]
1 | C1=Cc2[nH]c3cc(OCc4ccc(-c5ccccc5-c5nnn[nH]5)cc4)ccc3c2CC1 [L-809,339] | > 100 | 42
2 | c1ccc(-c2ccccc2-c2nn[nH]n2)cc1 [L-809,022] | > 1000 | 860
3 | Cc1nc2ccccc2n1Cc1ccc(-c2ccccc2-c2nnn[nH]2)cc1 [L-809-559] | > 250 | 4
4 | CCCc1nc(CC)c(C=O)n1Cc1ccc(-c2ccccc2-c2nnn[nH]2)cc1 | 190 | 7
5 | Cc1ccc(-c2ccccc2-c2nnn[nH]2)cc1 [L-158,507] | > 1000 | 160
6 | C1=Cc2c(c3ccccc3n2Cc2ccc(-c3ccccc3-c3nnn[nH]3)cc2)CC1 [L-161,189] | 120 | 0.3
7 | CCCCc1nc2ccc(O)cc2c(=O)n1Cc1ccc(-c2ccccc2-c2nnn[nH]2)cc1 | > 100 | 1.9
8 | CCCc1nc2ccc(Cl)nc2n1Cc1ccc(-c2ccccc2-c2nnn[nH]2)cc1 [L-158-678] | 240 | 3.5
9 | c1ccc(-c2nnn[nH]2)c(-c2ccc(Cn3cnc4cccnc43)cc2)c1 [L-809-558] | > 250 | 42
10 | Oc1ccc2c3c(n(Cc4ccc(-c5ccccc5-c5nnn[nH]5)cc4)c2c1)C=CCC3 [L-809,370] | > 100 | 6
11 | c1ccc(-c2nnn[nH]2)c(-c2ccc(Cn3cnc4ccccc43)cc2)c1 [L-808,509] | > 500 | 110
12 | CCCCc1nc2c(c(=O)n1Cc1ccc(-c3ccccc3-c3nnn[nH]3)cc1)SCC2 [L-159,906] | > 100 | 0.4
13 | Cc1ccnc2c1nc(C(C)C)n2Cc1ccc(-c2ccccc2-c2nnn[nH]2)cc1 [L-158-817] | > 100 | 1.8
